From ChEMBL document CHEMBL6103575, “Design, synthesis and evaluation of (E)-1-(4-(2-(1H-pyrazol-5-yl)vinyl)phenyl) derivatives as next generation selective RET inhibitors overcoming RET solvent front mutations (G810C/R)” (Eur J Med Chem, 2025)

Tests used:
[1] = test system: Proto-oncogene tyrosine-protein kinase receptor Ret (Homo sapiens), P07949 [G810R]; test: Inhibition of RET (unknown origin) G810R mutant at 1 uM relative to control
[2] = Induction of cell cycle arrest in mouse BaF3 cells harboring CCDC6-RET assessed as accumulation of cells at G2/M phase at 300 nM incubated for 24 hrs by propidium iodide staining based analysis (reference value: 34.11%); format: functional
[3] = Toxicity in SCID mouse implanted with mouse BaF3 cells assessed as change in body weight at 25 mg/kg, ip administered once daily for 10 days; format: organism-based; conditions: in vivo, 240 h, time 10 day
[4] = Induction of apoptosis in mouse BaF3 cells harboring CCDC6-RET assessed as early apoptotic cells at 300 nM incubated for 48 hrs by Annexin V-PE staining based flow cytometry analysis (Rvb =6.21%); format: functional
[5] = Induction of apoptosis in mouse BaF3 cells harboring CCDC6-RET G810C mutant assessed as late apoptotic cells at 10 nM incubated for 48 hrs by Annexin V-PE staining based flow cytometry analysis (Rvb =4.30%); format: functional
[6] = Induction of cell cycle arrest in mouse BaF3 cells harboring CCDC6-RET G810C mutant assessed as accumulation of cells at G2/M phase at 100 nM incubated for 24 hrs by propidium iodide staining based analysis (reference value: 34.75%); format: functional
[7] = Induction of apoptosis in mouse BaF3 cells harboring CCDC6-RET assessed as late apoptotic cells at 10 nM incubated for 48 hrs by Annexin V-PE staining based flow cytometry analysis (Rvb =2.44%); format: functional
[8] = Induction of apoptosis in mouse BaF3 cells harboring CCDC6-RET assessed as late apoptotic cells at 100 nM incubated for 48 hrs by Annexin V-PE staining based flow cytometry analysis (Rvb =2.44%); format: functional
[9] = Induction of apoptosis in mouse BaF3 cells harboring CCDC6-RET assessed as early apoptotic cells at 10 nM incubated for 48 hrs by Annexin V-PE staining based flow cytometry analysis (Rvb =6.21%); format: functional
[10] = Induction of cell cycle arrest in mouse BaF3 cells harboring CCDC6-RET G810C mutant assessed as accumulation of cells at S phase at 10 nM incubated for 24 hrs by propidium iodide staining based analysis (reference value: 12.47%); format: functional
[11] = Induction of cell cycle arrest in mouse BaF3 cells harboring CCDC6-RET G810C mutant assessed as accumulation of cells at G0/G1 phase at 100 nM incubated for 24 hrs by propidium iodide staining based analysis (reference value: 52.11%); format: functional
[12] = Induction of apoptosis in mouse BaF3 cells harboring CCDC6-RET G810C mutant assessed as late apoptotic cells at 300 nM incubated for 48 hrs by Annexin V-PE staining based flow cytometry analysis (Rvb =4.30%); format: functional
[13] = Induction of apoptosis in mouse BaF3 cells harboring CCDC6-RET G810C mutant assessed as early apoptotic cells at 100 nM incubated for 48 hrs by Annexin V-PE staining based flow cytometry analysis (Rvb =8.74%); format: functional
[14] = Induction of cell cycle arrest in mouse BaF3 cells harboring CCDC6-RET assessed as accumulation of cells at G0/G1 phase at 10 nM incubated for 24 hrs by propidium iodide staining based analysis (reference value: 52.51%); format: functional
[15] = Induction of cell cycle arrest in mouse BaF3 cells harboring CCDC6-RET assessed as accumulation of cells at G2/M phase at 100 nM incubated for 24 hrs by propidium iodide staining based analysis (reference value: 34.11%); format: functional
[16] = Induction of cell cycle arrest in mouse BaF3 cells harboring CCDC6-RET G810C mutant assessed as accumulation of cells at G0/G1 phase at 10 nM incubated for 24 hrs by propidium iodide staining based analysis (reference value: 52.11%); format: functional
[17] = Induction of apoptosis in mouse BaF3 cells harboring CCDC6-RET G810R mutant assessed as late apoptotic cells at 100 nM incubated for 48 hrs by Annexin V-PE staining based flow cytometry analysis (Rvb =3.21%); format: functional
[18] = Induction of apoptosis in mouse BaF3 cells harboring CCDC6-RET assessed as early apoptotic cells at 100 nM incubated for 48 hrs by Annexin V-PE staining based flow cytometry analysis (Rvb =6.21%); format: functional
[19] = Induction of cell cycle arrest in mouse BaF3 cells harboring CCDC6-RET G810C mutant assessed as accumulation of cells at G0/G1 phase at 30 nM incubated for 24 hrs by propidium iodide staining based analysis (reference value: 52.11%); format: functional
[20] = Induction of apoptosis in mouse BaF3 cells harboring CCDC6-RET G810C mutant assessed as necrotic cells at 10 nM incubated for 48 hrs by Annexin V-PE staining based flow cytometry analysis (Rvb =0.48%); format: functional
[21] = Induction of cell cycle arrest in mouse BaF3 cells harboring CCDC6-RET G810C mutant assessed as accumulation of cells at G2/M phase at 30 nM incubated for 24 hrs by propidium iodide staining based analysis (reference value: 34.75%); format: functional
BaF3 [22] = test: Antiproliferative activity against mouse BaF3 cells harbouring CCDC6-RET assessed as inhibition of cell proliferation incubated for 72 hrs by CCK-8 assay; format: functional, cell-based; conditions: BaF3, 72 h
[23] = Induction of cell cycle arrest in mouse BaF3 cells harboring CCDC6-RET assessed as accumulation of cells at G0/G1 phase at 30 nM incubated for 24 hrs by propidium iodide staining based analysis (reference value: 52.51%); format: functional
[24] = Induction of apoptosis in mouse BaF3 cells harboring CCDC6-RET G810C mutant assessed as viable cells at 10 nM incubated for 48 hrs by Annexin V-PE staining based flow cytometry analysis (Rvb =86.47%); format: functional; conditions: read-out: Activity
Ephrin type-A receptor 2 = Ephrin type-A receptor 2 (Homo sapiens, UniProt P29317); test: Inhibition of EPHA2 (unknown origin)
Chain of Ephrin type-A receptor 2 (P29317 whole entry): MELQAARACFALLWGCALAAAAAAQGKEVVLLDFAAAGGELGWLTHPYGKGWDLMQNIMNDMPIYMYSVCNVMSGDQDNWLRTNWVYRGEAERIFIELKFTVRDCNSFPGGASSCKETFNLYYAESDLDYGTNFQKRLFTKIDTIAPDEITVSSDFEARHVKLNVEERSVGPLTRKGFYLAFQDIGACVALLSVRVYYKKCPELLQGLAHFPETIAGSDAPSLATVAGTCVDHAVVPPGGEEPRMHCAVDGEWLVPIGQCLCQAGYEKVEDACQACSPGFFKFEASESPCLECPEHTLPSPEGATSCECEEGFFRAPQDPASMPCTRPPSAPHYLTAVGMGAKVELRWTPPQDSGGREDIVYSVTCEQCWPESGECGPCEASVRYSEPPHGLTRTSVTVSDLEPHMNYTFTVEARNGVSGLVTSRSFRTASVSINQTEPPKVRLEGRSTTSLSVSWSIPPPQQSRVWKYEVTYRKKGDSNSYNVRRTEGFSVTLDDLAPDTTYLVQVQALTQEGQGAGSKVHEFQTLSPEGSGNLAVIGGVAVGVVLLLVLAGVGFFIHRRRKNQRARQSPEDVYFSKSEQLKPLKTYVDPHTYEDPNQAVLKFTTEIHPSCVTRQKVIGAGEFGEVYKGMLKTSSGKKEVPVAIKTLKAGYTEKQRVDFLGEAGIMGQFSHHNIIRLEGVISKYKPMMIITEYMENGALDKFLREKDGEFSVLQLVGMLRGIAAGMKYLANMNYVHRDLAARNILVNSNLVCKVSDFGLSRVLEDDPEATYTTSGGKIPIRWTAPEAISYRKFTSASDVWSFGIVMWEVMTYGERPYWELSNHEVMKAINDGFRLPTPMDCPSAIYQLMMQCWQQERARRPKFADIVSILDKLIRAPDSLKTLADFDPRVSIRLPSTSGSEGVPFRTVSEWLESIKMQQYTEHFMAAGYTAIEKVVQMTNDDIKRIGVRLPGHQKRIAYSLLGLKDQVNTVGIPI

[25] = Induction of apoptosis in mouse BaF3 cells harboring CCDC6-RET G810R mutant assessed as viable cells at 300 nM incubated for 48 hrs by Annexin V-PE staining based flow cytometry analysis (Rvb =86.40%); format: functional; conditions: read-out: Activity
[26] = Induction of apoptosis in mouse BaF3 cells harboring CCDC6-RET G810C mutant assessed as necrotic cells at 300 nM incubated for 48 hrs by Annexin V-PE staining based flow cytometry analysis (Rvb =0.48%); format: functional
BaF3 [27] = test: Antiproliferative activity against mouse BaF3 cells harbouring CCDC6-RET G810R mutant assessed as inhibition of cell proliferation incubated for 72 hrs by CCK-8 assay; format: functional, cell-based; conditions: BaF3, 72 h
[28] = Induction of cell cycle arrest in mouse BaF3 cells harboring CCDC6-RET G810R mutant assessed as accumulation of cells at G2/M phase at 300 nM incubated for 24 hrs by propidium iodide staining based analysis (reference value: 33.61%); format: functional
BaF3 [29] = test: Inhibition of RET phosphorylation in mouse BaF3 cells harboring CCDC6-RET G810R mutant incubated for 12 hrs by Western blotting analysis; format: cell-based; conditions: dose <= 300.0 nM

Chain of Proto-oncogene tyrosine-protein kinase receptor Ret (Homo sapiens), P07949 [G810R] (P07949 whole entry G810R): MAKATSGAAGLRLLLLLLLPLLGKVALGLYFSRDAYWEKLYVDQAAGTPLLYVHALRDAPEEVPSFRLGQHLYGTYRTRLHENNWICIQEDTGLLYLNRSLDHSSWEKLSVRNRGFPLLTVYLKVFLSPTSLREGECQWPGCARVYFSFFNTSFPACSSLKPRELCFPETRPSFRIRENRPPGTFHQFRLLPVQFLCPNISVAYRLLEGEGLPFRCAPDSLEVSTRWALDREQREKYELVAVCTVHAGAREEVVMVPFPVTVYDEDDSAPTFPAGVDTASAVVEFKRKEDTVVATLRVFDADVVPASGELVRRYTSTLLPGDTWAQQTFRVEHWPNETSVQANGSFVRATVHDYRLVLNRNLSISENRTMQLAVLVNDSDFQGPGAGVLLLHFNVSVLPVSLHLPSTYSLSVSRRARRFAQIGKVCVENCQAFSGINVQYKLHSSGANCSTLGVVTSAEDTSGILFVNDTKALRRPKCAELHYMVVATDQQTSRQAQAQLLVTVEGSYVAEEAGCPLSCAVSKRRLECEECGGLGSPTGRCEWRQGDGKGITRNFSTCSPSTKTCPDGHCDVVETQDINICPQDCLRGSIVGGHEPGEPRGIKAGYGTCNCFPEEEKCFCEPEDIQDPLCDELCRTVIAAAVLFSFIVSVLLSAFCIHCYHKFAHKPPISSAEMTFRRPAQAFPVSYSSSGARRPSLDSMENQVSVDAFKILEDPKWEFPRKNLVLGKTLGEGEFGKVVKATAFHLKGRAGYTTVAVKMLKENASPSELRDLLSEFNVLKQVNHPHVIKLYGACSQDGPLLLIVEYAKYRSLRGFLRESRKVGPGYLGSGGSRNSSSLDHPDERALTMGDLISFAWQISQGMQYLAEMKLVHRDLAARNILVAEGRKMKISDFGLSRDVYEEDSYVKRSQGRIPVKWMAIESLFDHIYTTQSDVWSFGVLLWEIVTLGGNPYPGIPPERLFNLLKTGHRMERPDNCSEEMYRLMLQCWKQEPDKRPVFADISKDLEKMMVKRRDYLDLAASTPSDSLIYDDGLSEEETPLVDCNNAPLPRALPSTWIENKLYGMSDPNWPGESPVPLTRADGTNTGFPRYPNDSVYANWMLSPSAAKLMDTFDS

inhibition [1]: 74%
IC50 (BaF3 [22]): 0.013 µM
IC50 (Ephrin type-A receptor 2): 0.0634 µM
IC50 (BaF3 [27]): 0.0284 µM
Compound: COc1cncc(-c2cn[nH]c2/C=C/c2ccc(NC(=O)Nc3cc(C(C)(C)C(F)(F)F)on3)c(Cl)c2)c1
Activity [2]: 12.51%
Activity [3]: Non-toxic
Activity [4]: 54.65%
Activity [5]: 3.24%
Activity [6]: 25.81%
Activity [7]: 2.8%
Activity [8]: 1.21%
Activity [9]: 8.7%
Activity [10]: 12.31%
Activity [11]: 66.6%
Activity [12]: 0.31%
Activity [13]: 37.84%
Activity [14]: 54%
Activity [15]: 23.17%
Activity [16]: 52.74%
Activity [17]: 10.19%
Activity [18]: 74.7%
Activity [19]: 57.08%
Activity [20]: 0.49%
Activity [21]: 30.79%
Activity [23]: 56.2%
viability at 0.01 µM [24]: 87.1%
viability at 0.3 µM [25]: 22.5%
Activity [26]: 0.03%
Activity [28]: 16.09%
inhibition (BaF3 [29]): Dose-dependent-effect
